Like-named read-outs stand apart in the source and are kept apart here.
Columns and labels:
FKBP51 (FK1 domain) = biological target: T1, FKBP51 (FK1 domain) (Homo sapiens, UniProt Q13451); experiment: Fluorescence polarization assay, binding affinity to FKBP51 (FK1 domain); conditions: fluorescence polarization assay using tracer 2b, read-out: FKBP51FK1 IC50
T1 sequence (Q13451 42-130 limits assumed): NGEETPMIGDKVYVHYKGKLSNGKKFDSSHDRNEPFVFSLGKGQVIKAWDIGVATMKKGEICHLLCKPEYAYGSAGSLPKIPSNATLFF
Method: (§1) The binding affinites for FKBPs were determined as described in Kozany et al., ChemBioChem 10, 8, 2009, 1402-1410 using tracer 2b.
(§2) Table 1: Chemical compounds according to formula (I) used in fluorescence polarization assay: Binding affinity to FKBP51 (FK1 domain) and FKBP52 (FK1 domain)

FKBP52 (FK1 domain) = biological target: T2, FKBP52 (FK1 domain) (Homo sapiens, UniProt Q02790); experiment: Fluorescence polarization assay, binding affinity to FKBP52 (FK1 domain); conditions: fluorescence polarization assay using tracer 2b, read-out: FKBP52FK1 IC50
T2 sequence (Q02790 50-138 limits assumed): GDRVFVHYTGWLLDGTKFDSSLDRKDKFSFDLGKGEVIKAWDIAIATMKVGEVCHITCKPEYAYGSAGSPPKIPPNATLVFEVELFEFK
Method: as §1, §2

IC50 (FKBP51 (FK1 domain)) | IC50 (FKBP52 (FK1 domain)) | IC50 (FKBP52 (FK1 domain); listed as 3*) | IC50 (FKBP51 (FK1 domain); listed as 1*) | IC50 (FKBP52 (FK1 domain); listed as 1*) | Compound
> 100 µM | > 100 µM | – | – | – | CC[C@@H]1CCCC[C@@]1(O)C(=O)C(=O)N1CCCCC1C(=O)OCCOc1ccc(OC)c(OC)c1 (stereo partly drawn) [Reference Example 3*, 2-(3,4-dimethoxyphenoxy)ethyl 1-(2-((1S,2R)-2-ethyl-1-hydroxy-cyclohexyl)-2-oxoacetyl) piperidine-2-carboxylate, reference compound]
38.4 ± 16.5 µM | 46.2 ± 18.8 µM | – | – | – | COc1ccc(CC[C@@H](OC(=O)[C@@H]2CCCCN2C(=O)C(=O)C(C)(C)C)c2cccc(OCC(=O)O)c2)cc1OC [Reference Example 6, reference compound]
8.5 ± 0.6 µM | 6.2 ± 0.5 µM | – | – | – | COc1ccc(CC[C@@H](OC(=O)[C@@H]2CCCCN2C(=O)C(=O)[C@]2(O)CCCC[C@H]2CO)c2cccc(OCC(=O)O)c2)cc1OC [Compound 5, 2-(3-((R)-3-(3,4-dimethoxyphenyl)-1-((S)-1-(2-((1S,2S)-1-hydroxy-2-(hydroxylmethyl)cyclohexyl)-2-oxoacetyl)piperidine-2-carbonyloxy)propyl)phenoxy)acetic acid]
4.13 ± 0.2 µM | 2.64 ± 0.19 µM | – | – | – | COc1ccc(CC[C@@H](OC(=O)[C@@H]2CCCCN2C(=O)C(=O)C2(O)CCCCC2C)c2cccc(OCC(=O)O)c2)cc1OC (stereo in doubt) [Compound 6, 2-(3-((R)-3-(3,4-dimethoxyphenyl)-1-((S)-1-(2-((1R,2R)-1-hydroxy-2-methylcyclohexyl)-2-oxoacetyl)piperidine-2-carbonyloxy)propyl)phenoxy) acetic acid]
– | 4.2 ± 0.3 µM | – | – | – | CC[C@@H]1CCCC[C@@]1(O)C(=O)C(=O)N1CCCC[C@H]1C(=O)O[C@H](CCc1ccc(OC)c(OC)c1)c1cccc(OCC(=O)O)c1 [Compound 3a]
– | 9.77 ± 1.48 µM | – | – | – | CCC1CCCCC1(O)C(=O)C(=O)N1CCCC[C@H]1C(=O)O[C@H](CCc1ccc(OC)c(OC)c1)c1cccc(OCC(=O)O)c1 (stereo in doubt) [Compound 7, 2-(3-((R)-3-(3,4-dimethoxyphenyl)-1-((S)-1-(2-((1R,2R)-2-ethyl-1-hydroxycyclohexyl)-2-oxoacetyl)piperidine-2-carbonyloxy)propyl)phenoxy) acetic acid]
29.4 ± 8.5 µM | 11.7 ± 6.4 µM | – | – | – | COc1ccc(OCCOC(=O)C2CCCCN2C(=O)C(=O)[C@]2(O)CCCC[C@H]2C)cc1OC (stereo partly drawn) [Reference Example 2*, 2-(3,4-dimethoxyphenoxy)ethyl 1-(2-((1S,2R)-1-hydroxy-2-methyl-cyclohexyl)-2-oxoacetyl)piperidine-2-carboxylate, reference compound]
> 100 µM | > 100 µM | – | – | – | COc1ccc(CCOC(=O)C2CCCCN2C(=O)C(=O)[C@]2(O)CCCC[C@H]2C)cc1OC (stereo partly drawn) [Reference Example 1*, 3,4-dimethoxyphenethyl 1-(2-((1S,2R)-1-hydroxy-2-methyl-cyclohexyl)-2-oxoacetyl)piperidine-2-carboxylate, reference compound]
– | 3.5 ± 0.6 µM | – | – | – | CC[C@H]1CCCC[C@]1(O)C(=O)C(=O)N1CCCC[C@H]1C(=O)O[C@H](CCc1ccc(OC)c(OC)c1)c1cccc(OCC(=O)O)c1 [Compound 3b]
2.83 ± 0.21 µM | 1.71 ± 0.35 µM | – | – | – | COc1ccc(CC[C@@H](OC(=O)[C@@H]2CCCCN2C(=O)C(=O)c2ccc(Oc3ccccc3)cc2)c2cccc(OCC(=O)O)c2)cc1OC [Compound 10, 2-(3-((R)-3-(3,4-dimethoxyphenyl)-1-((S)-1-(2-oxo-2-(4-phenoxy-phenyl)acetyl)piperidine-2-carbonyloxy)propyl)phenoxy)acetic acid]
32.7 ± 12.3 µM | 49.2 ± 24.6 µM | – | – | – | CCC(C)(C)C(=O)C(=O)N1CC=CC[C@H]1C(=O)O[C@H](CCc1ccc(OC)c(OC)c1)c1cccc(OCC(=O)O)c1 [Reference Example 5, 2-(3-((R)-3-(3,4-dimethoxyphenyl)-1-((S)-1-(3,3-dimethyl-2-oxopentanoyl)-1,2,3,6-tetrahydropyridine-2-carbonyloxy)propyl)phenoxy)acetic acid, reference compound]
4.1 ± 0.8 µM | 5.6 ± 1.1 µM | – | – | – | COc1ccc(CC[C@@H](OC(=O)[C@@H]2CCCCN2C(=O)C(=O)c2cc(Cl)cc(Cl)c2)c2cccc(OCC(=O)O)c2)cc1OC [Compound 11, 2-(3-((R)-3-(3,4-dimethoxyphenyl)-1-((S)-1-(2-oxo-2-(3,5-dichloro-phenyl)acetyl)piperidine-2-carbonyloxy)propyl)phenoxy)acetic acid]
51.5 ± 31.9 µM | 41.6 ± 15.8 µM | – | – | – | CCC(C)(C)C(=O)C(=O)N1CCC[C@H]1C(=O)O[C@H](CCc1ccc(OC)c(OC)c1)c1cccc(OCC(=O)O)c1 [Reference Example 4, 2-(3-((R)-3-(3,4-dimethoxyphenyl)-1-((S)-1-(3,3-dimethyl-2-oxopentanoyl)-pyrrolidine-2-carbonyloxy)propyl)phenoxy)acetic acid, reference compound]
15.2 ± 1.04 µM | 9.53 ± 1.35 µM | – | – | – | COc1ccc(CC[C@@H](OC(=O)[C@@H]2CCCCN2C(=O)C(=O)C2CCCCC2)c2cccc(OCC(=O)O)c2)cc1OC [Compound 8]
2.02 ± 0.14 µM | 0.89 ± 0.06 µM | – | – | – | COc1ccc(CC[C@@H](OC(=O)[C@@H]2CCCCN2C(=O)C(=O)[C@]2(O)CCCC[C@H]2C)c2cccc(OCCN3CCOCC3)c2)cc1OC [Compound 2, (S)—((R)-3-(3,4-dimethoxyphenyl)-1-(3-(2-morpholinoethoxy)phenyl)propyl) 1-(2-((1S,2R)-1-hydroxy-2-methylcyclohexyl)-2-oxoacetyl)piperidine-2-carboxylate]
4.18 ± 0.15 µM | 2.2 ± 0.13 µM | – | – | – | COc1ccc(CC[C@@H](OC(=O)[C@@H]2CCCCN2C(=O)C(=O)[C@]2(O)CCCC[C@@H]2C)c2cccc(OCC(=O)O)c2)cc1OC [Compound 6a]
> 100 µM | > 100 µM | – | – | – | O=C(C(=O)N1CCCCC1C(=O)OCCCc1ccccc1)c1ccccc1 (stereo not drawn) [Reference Example 7, reference compound]
4.96 ± 0.25 µM | 2.64 ± 0.25 µM | – | – | – | COc1ccc(CC[C@@H](OC(=O)[C@@H]2CCCCN2C(=O)C(=O)[C@@]2(O)CCCC[C@H]2C)c2cccc(OCC(=O)O)c2)cc1OC [Compound 6b]
4.27 ± 0.19 µM | 2.44 ± 0.17 µM | – | – | – | COc1ccc(CC[C@@H](OC(=O)[C@@H]2CCCCN2C(=O)C(=O)[C@]2(O)CCCC[C@H]2C)c2cccc(OCC(=O)O)c2)cc1OC [Compound 1a]
55.6 ± 13.1 µM | 61.2 ± 23.7 µM | – | – | – | CC(C)C(C)(C)C(=O)C(=O)N1CCCC[C@H]1C(=O)O[C@H](CCc1ccccc1)c1ccccc1 [Reference Example 9, reference compound]
9.66 ± 0.83 µM | 3.72 ± 1.02 µM | – | – | – | CC[C@@H]1CCCC[C@@]1(O)C(=O)C(=O)N1CCCC[C@H]1C(=O)O[C@H](CCc1ccc(OC)c(OC)c1)c1cccc(OCCN2CCOCC2)c1 [Compound 4, (S)—((R)-3-(3,4-dimethoxyphenyl)-1-(3-(2-morpholinoethoxy)phenyl)propyl)1-(2-((1S,2R)-2-ethyl-1-hydroxycyclohexyl)-2-oxoacetyl)piperidine-2-carboxylate]
– | – | 9.5 ± 1.3 µM | – | – | CC[C@@H]1CCCC[C@@]1(O)C(=O)C(=O)N1CCCC[C@H]1C(=O)O[C@H](CCc1ccc(OC)c(OC)c1)c1cccc(OCC(=O)O)c1 [Compound 3, 2-(3-((R)-3-(3,4-dimethoxyphenyl)-1-((S)-1-(2-((1S,2R)-2-ethyl-1-hydroxy-cyclohexyl)-2-oxoacetyl)piperidine-2-carbonyloxy)propyl)phenoxy) acetic acid]
19.3 ± 6.6 µM | 11.6 ± 1.6 µM | – | – | – | COc1ccc(CC[C@@H](OC(=O)[C@@H]2CCCCN2C(=O)C(=O)c2cc(OC)c(OC)c(OC)c2)c2cccc(OCC(=O)O)c2)cc1OC [Compound 9, 2-(3-((R)-3-(3,4-dimethoxyphenyl)-1-((S)-1-(2-oxo-2-(3,4,5-tri-methoxyphenyl)acetyl)piperidine-2-carbonyloxy)propyl)phenoxy)acetic acid]
– | – | – | 4.2 ± 0.11 µM | 2.13 ± 0.21 µM | COc1ccc(CC[C@@H](OC(=O)[C@@H]2CCCCN2C(=O)C(=O)[C@]2(O)CCCC[C@H]2C)c2cccc(OCC(=O)O)c2)cc1OC [Compound 1, 2-(3-((R)-3-(3,4-dimethoxyphenyl)-1-((S)-1-(2-((1S,2R)-1-hydroxy-2-methylcyclohexyl)-2-oxoacetyl)piperidine-2-carbonyloxy)propyl)phenoxy) acetic acid]
89.5 ± 21.7 µM | > 100 µM | – | – | – | CCC(C)(C)C(=O)C(=O)N1CCCC1C(=O)OC(CCc1ccccc1)c1ccccc1 (stereo not drawn) [Reference Example 8, reference compound]
4.54 ± 0.24 µM | 2.88 ± 0.21 µM | – | – | – | COc1ccc(CC[C@@H](OC(=O)[C@@H]2CCCCN2C(=O)C(=O)[C@@]2(O)CCCC[C@@H]2C)c2cccc(OCC(=O)O)c2)cc1OC [Compound 1b]

From US20150018340A1, “PIPECOLATE-DIKETOAMIDES FOR TREATMENT OF PSYCHIATRIC DISORDERS” (MAX-PLANCK-GESELLSCHAFT ZUR FÖRDERUNG DER WISSENSCHAFTEN …, priority 2011, published 2015)
